Test results published in paper PMC6368365, “Didehydro-Cortistatin A Inhibits HIV-1 by Specifically Binding to the Unstructured Basic Region of Tat” (mBio, 2019).
Like-named read-outs stand apart in the source and are kept apart here.

Assays:
NL4-3 strain = experiment: HIV-1 NL4-3 infection of HeLa-CD4-LTR-LacZ reporter cells, LacZ measured 72 h later; format: cell-based; conditions: Human immunodeficiency virus 1, NL43
Text: To understand the structure-function relationship of the dCA molecule with respect to our structural model, we synthesized and characterized the ability of 11 analogs of dCA to inhibit HIV infection (Table 2). […] We used HeLa-CD4 cells stably expressing the HIV-1 5′ LTR driving β-galactosidase production (HeLa-CD4-LTR-LacZ cells) as a reporter for the infection with isolate NL4-3. Table 2 summarizes the IC50, 50% cytotoxic concentration (CC50), and therapeutic index (TI) for each compound. The loss of dCA activity was directly associated with the positioning and the chemical environment of the azote on the F ring and the presence of oxygen in ring B. Moreover, the E-F “skeleton angle” and the distance between the A-B-C-D and F rings affected the activity by more than 50-fold (analogs 7 and 10).
The activity of Tat in HeLa-CD4-LTR-Luc and OM10.1 cells was verified by a transactivation assay as described in reference. In HeLa-CD4-LTR-LacZ cells, the assay was performed as described in reference. A detailed protocol is provided in Text S1.
Transactivation assay. In HeLa-CD4-LTR-Luc cells and OM10.1 cells. The activity of Tat was verified by a transactivation assay as previously reported (13). Briefly, HeLa-CD4-LTR-Luc cells and OM10.1 were plated at 1×10^5 and 8x10^5 cells per well of a 6-well plate respectively. The following day, recombinant Tat protein was added to the cells in culture media without serum and in the presence of 100 μM of Chloroquine. Five hours later, serum was added at 5 % to the culture media. Cells were lysed 24 hrs later, protein concentration determined by Bradford assay and luciferase activity was measured for HeLa-CD4-LTR-Luc cells. Results corresponding to luciferase activity per protein concentration of each sample are shown as relative light unit (RLU). As for the OM10.1 cells, RNA was extracted using the RNA extraction kit (Qiagen) and DNA contamination was removed using Turbo-DNAse kit (Ambion). First-strand cDNA was synthesized using SuperscriptIII^TM first-strand cDNA kit (Invitrogen) and random hexamers as first-strand primers. qRT-PCR was performed with an aliquot of cDNA as template, using LightCycler? 480 SYBR Green I Master in a 20 µL reaction according to the manufacturer’s instructions. The mRNAs from each sample were used as negative control. Primer sequences for GAPDH (13) and all viral mRNAs as previously described (59). In HeLa-CD4-LTR-LacZ cells. It was performed as previously described (10). Briefly, cells were plated at 1×10^4 cells per well of a 96-well plate. Twenty-four hrs later HIV-1 NL4-3 strain was added in the presence of testing compound or DMSO. Seventy-two hrs post infection, cells were disrupted in lysis buffer (60 mM Na2HPO4, 40 mM NaH2PO4, 10 mM KCl, 10 mM MgSO4, 2.5 mM EDTA, 50 mM ß-mercaptoethanol, 0.125 % Nonidet P-40) and a quantitative chlorophenol red-ß-D-galactopyranoside (CPRG)-based (Boehringer Mannheim) assay was performed. The cell extracts were incubated in a reaction buffer (0.9 M phosphate buffer [pH 7.4], 9 mM MgCl2, 11 mM ß-mercaptoethanol, 7 mM CPRG) until a red color developed and measured with an LP400 (Becton Dickinson) plate reader at 572 nm.

[1] = system: export function of HIV Rev; experiment: Viral mRNA export in NL4-3-infected CEM-SS cells (qRT-PCR); format: cell-based, HIV-1; conditions: dCA 30 nM, 24 hours
Text: If dCA were to bind the basic domain of Tat in its disordered form, then one would predict it might also bind to other basic peptide sequences and block their functions. The two well-known proteins that share a similar basic domain with Tat are HIV-1 Rev protein and the cellular protein Hexim-1 (Fig. 3A). As such, we investigated whether dCA could inhibit these similar basic domain functions. The basic domain of Rev is responsible for its nuclear localization ([31]); therefore, we assessed whether dCA could impact the subcellular localization of Rev (Fig. 3B) as previously shown for Tat ([10]). We transfected HeLa-CD4-LTR-Luc cells with a plasmid expressing FLAG-tagged Rev and assessed Rev localization in the presence of 100 nM dCA. […] Twenty-four hours later, cells were collected, and total, nuclear, and cytoplasmic mRNAs were extracted, reverse transcribed, and quantified by quantitative real-time PCR (qRT-PCR).
Cells were infected with the NL4-3 strain for 24 hours. […] Total, nuclear, and cytoplasmic mRNAs were extracted, and viral messages were measured by qRT-PCR. […] Statistical significance was determined using one-way ANOVA with post hoc Tukey’s test, comparing the DMSO condition to the other conditions. ***, P < 0.0001; **, P < 0.001; *, P < 0.01. […] Seventy hours later, viability was measured. […]

Structure (SMILES): CN(C)C1CC23CCC4(O2)C(=CCC2(C)C(c5ccc6ccncc6c5)=CCC24)C=C3C(O)C1O (stereo not drawn) [dCA, didehydro-cortistatin A]
- IC50 (NL4-3 strain; HeLa-CD4-LTR-LacZ cells infected with NL4-3, LacZ at 72 h, mean ± SD, n = 2 to 3, read-out: IC50): 600 ± 300 pM
- IC50 (NL4-3 strain; span of Table 2 and earlier value, read-out: dCA inhibitory activity in cell-based assays): 600 to 2000 pM
- export function of HIV Rev in CEM-SS cells [1]: does not perturb the export function of HIV Rev in CEM-SS cells
